Publication PMC9976893, “Dynamic states of eIF6 and SDS variants modulate interactions with uL14 of the 60S ribosomal subunit” (Nucleic Acids Research, 2023)

Tested on: full-length human eIF6
Assay: Surface plasmon resonance of uL14 peptides on immobilized eIF6
Details: BIAcore S200, eIF6 on CM5 chip, peptide 0-500 μM in 20 mM HEPES pH 7.4, 150 mM NaCl, 0.01% BSA, 0.002% Tween 20; repeated three times; non-specific binding subtracted
Description: SPR analyses were carried out using a BIAcore S200 instrument (GE-Healthcare). eIF6 (50 μg/ml) was solubilized in 20 mM ammonium acetate pH 4.0 and immediately immobilized on a CM5 sensor chip (4913 Response Units [RU] using NHS/EDC chemistry). After baseline stabilization, titrations were performed by injecting increasing concentrations (0–500 μM, 1:2 dilutions) of uL14-WT ([…]), the site-specific mutant peptides, or the uL14-ΔC ([…]) peptide, solubilized in running buffer (20 mM HEPES pH 7.4, 150 mM NaCl, 0.01% BSA, and 0.002% Tween 20). At the end of each titration, a solution of 20 mM HEPES pH 7.4 and 1.5 M NaCl was used to regenerate the chip. The flow rate was 25 μl/min. Peptides were solubilized in water and their concentration determined at 280 nm using the molar extinction coefficient ϵ280 = 5500 M^−1 cm^−1. To ensure reproducibility, each experiment was repeated three times. Sensograms were corrected for baseline.
For SPR studies, full-length elF6 was immobilized to the surface, and the C-terminal peptide of uL14 (aa 121–140) was used in the fluid phase (Figure 2D). […] The contribution of non-specific binding of the peptide to the surface was subtracted for each sensorgram. […] It further highlighted the significance of the N135 and S138 for interaction with eIF6. […]

binding to immobilized eIF6 (SPR): complete loss in binding
Sequence: VAKECADLWPRI [uL14-ΔC]
